# Measurements from patent publication US20220332799A1, “HERV INHIBITORS FOR USE IN TREATING TAUOPATHIES” (Deutsches Zentrum Für Neurodegenerative Erkrankungen E.V. …, priority 2019, published 2022).
# “Also recorded” adds a separate entry of the source.
# Legend:
# [1] = tested on: MuERV Env; assay: Western blot of Env maturation in donor cell lysates and EVs; format: cell-based, mouse; conditions: donor cells 10 μM, 3 days, vs DMSO
# Procedure: Cell lysates and EVs derived from Amprenavir-treated donor cell clone N2a NM-HA^agg s2E were analyzed for Env maturation by Western blot. Amprenavir-treated cell lysate and EVs lack the proteolytical mature Env transmembrane (TM) fragment p15E required for receptor binding. Cleaved products and degradation intermediates were detected by anti-MuLV virus antibody ABIN457298. Presumed bands representing Env precursor protein (gp85 and gp70), Pr15E or cleavage product (p15E) are indicated. • b., c. Aggregate induction in recipient N2a NM-GFP^sol cells cocultured with Amprenavir-pretreated N2a NM-HA^agg s2E donor cells or (c) in recipient cells exposed to EVs derived from Amprenavir-treated donors. • d. EVs from donor clone N2a NM-HA^agg s2E were incubated with increasing concentrations of anti-Env antibody mAb83A25 for 1 h and added to recipient N2a NMGFP^sol cells for 16 h. • e, g. Donor clone N2a NM-HA^agg s2E was transfected with three individual siRNAs (SEQ ID NO 14-19) against endogenous Env (e) or (SEQ ID NO 20-25) against Gag (g). […] MuERV Env and Gag protein levels were analyzed by Western blot. • l. […] Recipient N2a NM-GFP^sol cells were transfected with two siRNAs against XPR1 (SEQ ID NO 26-29), siRNA against mCat-1 (SEQ ID NO 30 and 31) or with non-silencing siRNA control. mRNA knock-down was assessed 48 h post siRNA transfection by quantitative PCR. […]
# [2] = tested on: HERV-K; conditions: Tyagi et al., Retrovirology (2017), 14:21; cited from earlier work
# [3] = tested on: MuERV env and gag mRNA; assay: qRT-PCR of MuERV env and gag transcripts in donor clone s2E; format: cell-based, mouse; conditions: s2E P1 donors, Aza 200 nM or Dec 100 nM, then 5 days without drug, vs DMSO
# Procedure: To inhibit methyltransferases, s2E P1 donor cells were treated for three days with methyltransferase inhibitors 5-Azacytidine (Aza) 200 nM, Decitabine (Dec) 100 nM or DMSO as solvent control. Subsequently, the cells were cultured in the absence of the drugs for 5 days. Pre-treated donor cells were subsequently cocultured with recipient cells as described above to monitor aggregate induction efficiency in recipient N2a NM-GFP^sol cells. Cell lysates of donor cells were also analyzed for MuERV Env and Gag expression levels by western blot. To increase DNA methylation, the s2E donor clone (P21) was treated with methyl group donors L-methionine (L-M) 80 mM, Betaine (B) 80 mM, Choline chloride (CC) 20 mM or medium control for 6 days. MuERV Env and Gag protein levels were analyzed by western blot. Subsequently, cells were cocultured with recipient cells for 16 h. The percentage of aggregate containing recipient cells was compared to the percentage of aggregate bearing recipients cocultured with solvent-treated donors. […]
# Total RNA from cell pellets or brain samples was isolated using the RNeasy Mini Kit or RNeasy Lipid Tissue Mini Kit (Qiagen). RNA concentration and quality were determined using the Agilent 2100 Bioanalyzer System. For a 20 μl reaction, 1 μg RNAs were reversely transcribed to cDNA using the iScript™ cDNA Synthesis Kit (Bio-Rad). For a 20 μl qRT-PCR reaction, 2 μl of synthesized cDNA was used as template. For qRT-PCR of murine env AA037244.2 and gag AID54952, custom designed TaqMan probes were used (Thermo Fisher Scientific). Pre-designed TaqMan probes by the company for murine pan-env, xpr1, mcat-1 and gapdh as housekeeping control and TaqMan™ Gene Expression Master Mix (Thermo Fisher Scientific) were used. qRT-PCR using TaqMan probes was performed as described in the manufacturer's instruction. For qRT-PCR analyses of HERV family members, primers were designed using the corresponding cDNA sequences (cf. SEQ ID NOs. 73-92). PowerUP SYBR™ Green Master Mix (Thermo Fisher Scientific) was mixed with different cDNAs and corresponding primers as indicated in the instruction. The fast cycling mode was used for all primers.
SMILES,Env protein maturation to TM p15E [1],effectiveness against HERV-K [2],expression of total env and gag mRNA [3],expression of total env and gag mRNA ([3]; listed as 5-aza-2′-deoxycytidine)
CC(C)CN(C[C@@H](O)[C@H](Cc1ccccc1)NC(=O)O[C@H]1CCOC1)S(=O)(=O)c1ccc(N)cc1 [Amprenavir],"efficiently inhibited Env protein maturation to TM p15E; also recorded: inhibits maturation of endogenous MuERV proteins, including Env",effective against HERV-K,,
"Nc1ncn([C@H]2C[C@H](O)[C@@H](CO)O2)c(=O)n1 [Decitabine, 5-aza-2′-deoxycytidine]",,,increased expression of total env and gag mRNA,"Increased expression of MuERV env (f), gag (h) and pan-env (g) transcripts"
